Results as given in patent US20100130549A1, “PSYCHOTROPIC COMPOUNDS, COMPOSITIONS AND METHODS OF USE” (priority 2007, published 2010).

How the values were obtained:
Adrenergic α2A = target: T1, Adrenergic α2A (Homo sapiens, UniProt P08913); assay: Radioligand binding assay, Adrenergic α2A
T1 construct: 203620
T1 sequence (P08913 1-465): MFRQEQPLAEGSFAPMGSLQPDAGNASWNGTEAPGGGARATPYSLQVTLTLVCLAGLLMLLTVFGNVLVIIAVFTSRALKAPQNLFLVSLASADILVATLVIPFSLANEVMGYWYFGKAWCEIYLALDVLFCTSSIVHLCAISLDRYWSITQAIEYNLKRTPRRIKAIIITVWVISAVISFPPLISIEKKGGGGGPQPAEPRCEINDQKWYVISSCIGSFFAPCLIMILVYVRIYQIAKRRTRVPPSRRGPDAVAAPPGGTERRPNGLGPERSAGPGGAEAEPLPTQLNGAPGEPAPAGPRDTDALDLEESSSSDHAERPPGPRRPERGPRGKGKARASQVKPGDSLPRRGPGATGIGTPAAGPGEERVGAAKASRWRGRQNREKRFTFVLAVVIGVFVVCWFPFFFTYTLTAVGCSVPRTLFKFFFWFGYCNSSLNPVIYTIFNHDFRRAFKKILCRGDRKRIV
Description: (§1) . Table 1 provides data produced via a receptor binding assay and IC50 and Ki determination. […] In addition, the compound of formula (Ia) has a potent DAT inhibition, which is indicative of dopaminergic uptake inhibition and increased DA activity. In addition to the effect on SERT and DAT, the compound of formula (Ia) inhibited the transporter of Norepinephrine (NET), and several neurotransmitter's receptors like alpha2A and alpha2C receptors, alpha 1A and alphal C, 5HT2A and 5HT2C, signal histamine2 and dopamine D1. This specific profile is in line with the data on antidepressant, anxiolytic and moderate neuro-stimulation activity observed in the animal model studies.
(§2) With regard to the data provided in Table 1, the biochemical assay results are presented as the percent inhibition of specific binding or activity throughout the report. For primary assays, only the lowest concentration with a significant response judged by the assays’ criteria, is shown in this summary. […] Unless otherwise requested, primary screening in duplicate with quantitative data (e.g., IC50±SEM, Ki±SEM and nH) are shown.

Adrenergic α1D = target: T2, Adrenergic α1D (Homo sapiens, UniProt P25100); assay: Radioligand binding assay, Adrenergic α1D
T2 sequence (P25100 1-572): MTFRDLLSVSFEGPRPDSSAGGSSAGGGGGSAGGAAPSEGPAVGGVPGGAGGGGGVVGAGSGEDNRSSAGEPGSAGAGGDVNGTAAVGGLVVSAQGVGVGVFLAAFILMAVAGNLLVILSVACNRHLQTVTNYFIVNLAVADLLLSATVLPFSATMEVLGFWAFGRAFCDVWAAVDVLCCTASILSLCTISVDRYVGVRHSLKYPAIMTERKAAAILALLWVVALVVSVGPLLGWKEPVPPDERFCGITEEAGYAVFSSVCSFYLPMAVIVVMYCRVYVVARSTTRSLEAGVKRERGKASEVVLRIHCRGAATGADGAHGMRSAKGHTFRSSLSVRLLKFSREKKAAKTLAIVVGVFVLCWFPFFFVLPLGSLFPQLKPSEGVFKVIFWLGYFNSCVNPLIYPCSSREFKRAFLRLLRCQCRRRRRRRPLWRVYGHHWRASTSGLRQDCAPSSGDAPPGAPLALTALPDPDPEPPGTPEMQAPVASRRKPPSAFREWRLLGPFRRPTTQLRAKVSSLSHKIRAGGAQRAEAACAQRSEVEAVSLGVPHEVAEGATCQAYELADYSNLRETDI
Description: as §1, §2

Dopamine D1 = Dopamine D1 (Homo sapiens, UniProt P21728); assay: Radioligand binding assay, Dopamine D1
Dopamine D1, sequence (P21728 whole entry): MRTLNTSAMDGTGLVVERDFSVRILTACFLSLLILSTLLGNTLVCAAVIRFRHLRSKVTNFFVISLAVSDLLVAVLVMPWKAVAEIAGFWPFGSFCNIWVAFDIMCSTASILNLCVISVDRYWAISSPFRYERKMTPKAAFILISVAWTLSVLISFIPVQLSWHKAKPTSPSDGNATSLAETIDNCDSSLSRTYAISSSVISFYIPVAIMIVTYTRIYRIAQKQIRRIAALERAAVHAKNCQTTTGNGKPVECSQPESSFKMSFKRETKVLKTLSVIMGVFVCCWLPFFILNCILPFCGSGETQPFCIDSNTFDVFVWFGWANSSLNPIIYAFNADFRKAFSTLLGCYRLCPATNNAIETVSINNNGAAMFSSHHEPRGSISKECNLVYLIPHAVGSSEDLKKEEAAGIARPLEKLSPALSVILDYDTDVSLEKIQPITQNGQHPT
Description: as §1, §2

[1] = target: T3, Serotonin (5-Hydroxytryptamine) 5-HT2C (Homo sapiens, UniProt P28335); assay: Radioligand binding assay, 5-HT2C
T3 sequence (P28335 33-458): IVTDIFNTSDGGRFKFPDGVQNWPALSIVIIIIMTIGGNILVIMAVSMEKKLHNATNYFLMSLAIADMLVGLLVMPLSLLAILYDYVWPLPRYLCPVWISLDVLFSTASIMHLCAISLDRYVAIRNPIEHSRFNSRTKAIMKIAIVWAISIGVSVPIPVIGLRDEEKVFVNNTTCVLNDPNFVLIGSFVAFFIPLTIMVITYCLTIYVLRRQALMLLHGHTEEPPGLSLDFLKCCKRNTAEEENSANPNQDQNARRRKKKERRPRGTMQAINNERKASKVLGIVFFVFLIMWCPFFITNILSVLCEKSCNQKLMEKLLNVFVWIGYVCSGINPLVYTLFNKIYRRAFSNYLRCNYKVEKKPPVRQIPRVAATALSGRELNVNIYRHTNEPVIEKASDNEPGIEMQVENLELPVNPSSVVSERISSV
Description: as §1, §2

[2] = target: Transporter, Serotonin (5-Hydroxytryptamine) (SERT) (Homo sapiens, UniProt P31645); assay: Radioligand binding assay, Serotonin transporter
Transporter, Serotonin (5-Hydroxytryptamine) (SERT), sequence (P31645 whole entry): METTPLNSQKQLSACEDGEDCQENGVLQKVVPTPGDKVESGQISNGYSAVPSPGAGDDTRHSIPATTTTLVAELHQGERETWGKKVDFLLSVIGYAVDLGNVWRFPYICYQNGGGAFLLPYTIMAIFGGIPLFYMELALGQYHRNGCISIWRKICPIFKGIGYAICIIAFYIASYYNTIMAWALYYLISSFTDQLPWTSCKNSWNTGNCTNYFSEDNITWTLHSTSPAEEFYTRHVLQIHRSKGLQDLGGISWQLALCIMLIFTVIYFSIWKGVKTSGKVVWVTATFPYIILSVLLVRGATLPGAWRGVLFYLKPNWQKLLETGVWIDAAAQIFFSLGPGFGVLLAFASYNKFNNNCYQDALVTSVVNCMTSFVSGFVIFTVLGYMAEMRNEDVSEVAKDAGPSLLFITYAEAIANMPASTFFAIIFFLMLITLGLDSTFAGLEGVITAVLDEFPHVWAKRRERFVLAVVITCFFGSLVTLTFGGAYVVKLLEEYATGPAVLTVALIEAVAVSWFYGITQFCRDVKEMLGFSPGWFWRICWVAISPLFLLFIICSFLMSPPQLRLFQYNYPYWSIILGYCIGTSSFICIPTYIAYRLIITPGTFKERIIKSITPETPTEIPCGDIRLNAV
Description: as §2

Adrenergic α2c = target: T4, Adrenergic α2c (Homo sapiens, UniProt P18825); assay: Radioligand binding assay, Adrenergic α2c
T4 construct: 203800
T4 sequence (P18825 1-462): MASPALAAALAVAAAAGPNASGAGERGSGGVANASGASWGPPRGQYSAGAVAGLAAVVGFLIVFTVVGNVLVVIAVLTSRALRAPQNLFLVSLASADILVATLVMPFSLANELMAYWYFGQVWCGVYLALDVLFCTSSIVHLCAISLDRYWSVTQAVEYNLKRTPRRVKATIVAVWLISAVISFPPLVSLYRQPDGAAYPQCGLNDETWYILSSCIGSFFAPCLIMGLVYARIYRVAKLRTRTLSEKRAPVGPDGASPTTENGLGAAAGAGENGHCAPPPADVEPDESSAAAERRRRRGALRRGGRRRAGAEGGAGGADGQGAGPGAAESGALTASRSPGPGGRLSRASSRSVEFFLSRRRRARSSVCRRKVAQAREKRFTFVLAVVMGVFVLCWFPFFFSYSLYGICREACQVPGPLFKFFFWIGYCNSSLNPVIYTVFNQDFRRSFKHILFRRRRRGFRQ
Description: as §1, §2

Compound `CN[C@H]1CC[C@@H](c2ccc(Cl)c(Cl)c2)c2ccc(C#CCCCO)cc21` [compound Ia, (1S-cis)-4-(3,4-dichlorophenyl)-7-(5-hydroxy-1-pentyn-1-yl)-1,2,3,4-tetrahydro-N-methyl-1-naphthalenamine hydroiodide] has an IC50 (Adrenergic α2A) of 273 nM, a nH (Adrenergic α2A) of 0.930 and an inhibition at 1 µM (Adrenergic α2A; 1 μM) of 82%. For the same compound, the Ki (Adrenergic α2A; read-out: K1) was 102 nM, the IC50 (Adrenergic α1D) was 2500 nM and the nH (Adrenergic α1D) was 1.04. It also gave an inhibition at 3 µM (Adrenergic α1D; 3 μM) of 54%, a Ki (Adrenergic α1D; read-out: K1) of 1230 nM and an IC50 (Dopamine D1) of 2700 nM. For the same compound, the nH (Dopamine D1) was 1.25, the inhibition at 10 µM (Dopamine D1; 10 μM) was 84% and the Ki (Dopamine D1; read-out: K1) was 1350 nM. It also gave an IC50 [1] of 9160 nM, a nH [1] of 2.15 and an inhibition at 10 µM ([1]; read-out: % INH.) of 54%. For the same compound, the Ki ([1]; read-out: K1) was 4800 nM, the IC50 [2] was < 300 nM and the inhibition at 0.03 µM ([2]; 0.03 μM) was 86%. It also gave a Ki ([2]; read-out: SERT final Ki) of 1.09 nM, an IC50 (Adrenergic α2c) of 1900 nM and a nH (Adrenergic α2c) of 1.03. The inhibition at 3 µM (Adrenergic α2c; 3 μM) was 62% and the Ki (Adrenergic α2c; read-out: K1) was 276 nM.
